# Data as given in patent publication US20200038438A1, “ANGSTROM SILVER INJECTION FOR CANCER INHIBITION, PREPARATION METHOD AND APPLICATION THEREOF” (Shenzhen AMCAN Medical Biotechnology Limited, priority 2018, published 2020).
# “And” between values parts separate entries of the source, which are not always exact repeats. Equal entries are not always repeated.
# How the values were obtained:
# [1] = system: tumor tissue cell, Liver cancer; experiment: 3D drug susceptibility detection (three-dimensional co-culture system), liver cancer patient; type: cell-based, human; settings: person
# Excerpt: A second exemplary embodiment is shown below. • 3D drug susceptibility detection result
# [2] = system: tumor tissue cell, Lung Tumor; experiment: 3D drug susceptibility detection (three-dimensional co-culture system), lung tumor patient; type: cell-based, human; settings: serial No. 0018
# Excerpt: A fourth exemplary embodiment is shown below. • 3D drug susceptibility detection result
# [3] = system: tumor tissue cell, NSCLC; experiment: 3D drug susceptibility detection (three-dimensional co-culture system), NSCLC patient; type: cell-based, human
# Excerpt: A third exemplary embodiment is shown below. • 3D drug susceptibility detection result
# [4] = system: human non-small cell lung cancer cells A549; experiment: CellTiter-Glo cell viability, 72 hours; type: cell-based; settings: duplicate wells
# Excerpt: (§1) A first exemplary embodiment is shown a detection of the angstrom silver on a proliferation influence of human non-small cell lung cancer cells A549 and human hepatocellular carcinoma cells HepG2.
# (§2) Reagents and consumables shown below: 1. HepG2, provided by HD Biosciences (Shanghai) Co., Ltd., and passed a mycoplasma detection; 2, F 12K culture medium, American Gibco, Art. No.: 21127-022; 3. EMEM culture medium, American ATCC, Art. No.: 30-2003; 4. Fetal bovine serum (FBS), American Hyclone, Art. No.: CH30160.03; 5. Penicillin-streptomycin liquid, American Invitrogen, Art. No.: CH15140-122; 6. DG-5 (25 Ang) and DG-5 solvents, DG-6 (25 Ang) and DG-6 solvents respectively provided by Shenzhen AMCAN Medical Biotechnology Limited; 7. […] DMSO, American Sigma, Art. No.: D4540; 9. 96-well cell culture plate, American Corning, Art. No.: 3610; 10. CellTiter-Glo Luminescent Cell Viability Assay, American Promega, Art. No.: G7571; 11. Plate reader, American Perkin Elmer, EnVision Multilabel Plate Reader.
# (§3) Cell culture medium: 1. A549 culture medium: including 10% fetal bovine serum and F 12K culture medium with 100 U penicillin and 100 μg/mL streptomycin; 2. HepG2 culture medium: including 10% fetal bovine serum and EMEM culture medium with 100 U penicillin and 100 μg/mL streptomycin.
# (§4) 3. Only before starting an experiment, in the sterile condition, the prepared dg-5 gradient concentration solution is diluted 2 times by full cell culture medium. At this time, the gradient concentration of a compound to be measured includes 150 ppm, 15 ppm, 1.5 ppm, 0.15 ppm and 0.015 ppm, which is a 2-by-compound solution to be used to treat cells.
# (§5) 4. Only before starting the experiment, in the sterile condition, the prepared dg-5 gradient concentration solution was diluted 100 times by the full cell culture medium. At this time, the gradient concentration of the compound to be measured includes 2 μM, 200 nM, 20 nM, 2 nM and 0.2 nM, which is a 2-by-compound solution to be used to treat cells.
# (§6) 1. The cell is inoculated in a 96-well cell culture plate the day before the treatment of the compound, while an inoculation density is shown in the experimental design above, and an inoculation volume was 100 μL per hole.
# (§7) 2. The next day, the prepared 2-by-compound solution is added to the 96-well cell culture plate according to an arrangement diagram of the compound, and each hole is added to 100 μL.
# (§8) 3. Gently oscillating the 96-well cell culture plate and placing it in a 37° C. incubator to continue cultivating for 72 hours.
# (§9) 4. After reaching a designated incubation time, a prepared reagent is added to the 96-well cell culture plate according to a CellTiterGlo's reagent specification, and then it is fully blended under a room temperature, finally avoid light incubation for 10 minutes.
# (§10) 5. Placing the 96-well cell culture plate in a plate reader to analyze it, and setting it to read chemical luminescence and record data.
# (§11) Readout in each hole needs to be converted to a cell viability. The cell viability can be calculated by the following formula: […]
# [5] = system: human hepatocellular carcinoma cells HepG2; experiment: CellTiter-Glo cell viability, 72 hours; type: cell-based; settings: duplicate wells
# Excerpt: as §1, §2, §3, §4, §5, §6, §7, §8, §9, §10, §11
Compound,"drug efficacy, 3D drug susceptibility detection [1]","drug efficacy, 3D drug susceptibility detection [2]","drug efficacy, 3D drug susceptibility detection ([3]; serial No. 0015)",further results
O=c1[nH]cc(F)c(=O)[nH]1 [5-fluorouracil],Ineffective,worst group of efficacy,worst group of efficacy,–
C=CC(=O)Nc1cc(Nc2nccc(-c3cn(C)c4ccccc34)n2)c(OC)cc1N(C)CCN(C)C [AZD9291],–,best group of efficacy,best group of efficacy,–
CN[C@@H]1C[C@H]2O[C@@](C)([C@@H]1OC)n1c3ccccc3c3c4c(c5c6ccccc6n2c5c31)C(=O)NC4 [STSP],–,–,–,"Percentage of cell growth ([4]; A549, 0.1 nM): 124.6% and 126.9%; Percentage of cell growth ([4]; A549, 1 nM): 99.8% and 99.2%; Percentage of cell growth ([4]; A549, 10 nM): 68.8% and 68.5%; Percentage of cell growth ([4]; A549, 100 nM): 28.5%; Percentage of cell growth ([5]; HepG2, 0.1 nM): 109.0% and 103.4%; Percentage of cell growth ([5]; HepG2, 1 nM): 88.4% and 86.2%; Percentage of cell growth ([5]; HepG2, 100 nM): 17.5% and 22.2%; Percentage of cell growth ([5]; HepG2, 1000 nM): 9.7% and 11.2%"
N.N.O=C([O-])C1(C(=O)[O-])CCC1.[Pt+2] [carboplatin],Ineffective,–,–,–
CC(=O)O[C@@]12CO[C@@H]1C[C@H](O)[C@@]1(C)C(=O)[C@H](O)C3=C(C)[C@@H](OC(=O)[C@H](O)[C@@H](NC(=O)OC(C)(C)C)c4ccccc4)C[C@@](O)([C@@H](OC(=O)c4ccccc4)[C@H]21)C3(C)C [docetaxel],second efficacy,–,–,–
C#Cc1cccc(Nc2ncnc3cc(OCCOC)c(OCCOC)cc23)c1 [erlotinib],–,worst group of efficacy,worst group of efficacy,–
COc1cc2ncnc(Nc3ccc(F)c(Cl)c3)c2cc1OCCCN1CCOCC1 [gefitinib],–,worst group of efficacy,worst group of efficacy,–
Nc1ccn([C@@H]2O[C@H](CO)[C@@H](O)C2(F)F)c(=O)n1 [gemcitabine],–,–,best group of efficacy,–
Cc1ccc(NC(=O)c2ccc(CN3CCN(C)CC3)cc2)cc1Nc1nccc(-c2cccnc2)n1 [imatinib],better,–,–,–
CC(=O)O[C@H]1C(=O)[C@@]2(C)[C@H]([C@H](OC(=O)c3ccccc3)[C@]3(O)C[C@H](OC(=O)[C@H](O)[C@@H](NC(=O)c4ccccc4)c4ccccc4)C(C)=C1C3(C)C)[C@]1(OC(C)=O)CO[C@@H]1C[C@@H]2O [paclitaxel],second efficacy,–,–,–
Nc1nc2[nH]cc(CCc3ccc(C(=O)N[C@@H](CCC(=O)O)C(=O)O)cc3)c2c(=O)[nH]1 [pemetrexed],Ineffective,worst group of efficacy,worst group of efficacy,"drug efficacy, 3D drug susceptibility detection ([3]; serial No. 0015, listed as permetrexed): very poor efficacy"
CNC(=O)c1cc(Oc2ccc(NC(=O)Nc3ccc(Cl)c(C(F)(F)F)c3)cc2)ccn1 [sorafenib],Ineffective,–,–,–
